Assay results as given in patent US20090221538A1, “METHODS OF TREATING MULTIPLE SCLEROSIS BY ADMINISTERING PULSE DOSE CALCITRIOL” (priority 2008, published 2009).
“And” between values parts separate entries of the source, which are not always exact repeats. Equal values may be shown once. Marks after values point to notes of the source that are not given here.

System: B10.PL mice with acute EAE
Experiment: Treatment of MBP-induced acute EAE in B10.PL mice, daily clinical EAE disability score
Assay type: in vivo
Parameters: key to cumulative disability (sum of daily disability scores; mean) / Cumulative disability / EAE severity (initial) / Remission (minimum) / EAE severity (final) / EAE severity (decrease): EAE score 0 = normal to 5 = moribund; cumulative = sum of daily scores
Conditions: for EAE severity (initial): score at randomization
Experimental: Breeding pairs of B10.PL-H2^uH2-T18^a/(73NS)/SnJ (hereafter B10.PL) mice were purchased from the Jackson Laboratory (Bar Harbor, Me.). The experimental B10.PL mice were either bred in the pathogen-free mouse colony at the University of Wisconsin Department of Biochemistry, or purchased from the Jackson Laboratory. Mice were housed at 23° C. with 40-60% humidity, 12 hr light-dark cycles, and ad libidum access to water. Unless stated otherwise, the mice were fed Lab Diet #5008 (PMI Nutrition International, Inc., Brentwood, Mo.) containing 0.33 μg/d vitamin D3 and 1% calcium. Experiments used male and female mice aged 6-8 wks (age- and sex-matched within experiments). The University of Wisconsin College of Agricultural and Life Sciences Institutional Animal Care and Use Committee approved all of the experimental protocols.
Bovine myelin basic protein (Sigma Chemical Co., St. Louis, Mo.) was dissolved at 2 mg/mL in 0.1 N acetic acid and emulsified with Complete Freund's adjuvant containing heat-killed Mycobacterium tuberculosis H37 Ra solution (Difco). Each mouse was injected subcutaneously with 0.1 mL emulsion in each hind flank (400 micrograms of MBP per mouse). On the day of immunization and again 2 days later, 200 nanograms of pertussis toxin was injected into the peritoneum. Thereafter, clinical EAE signs were scored daily as follows: 0, normal; 1, limp tail; 1.5, partial paralysis of one hind limb; 2, partial paralysis of both hind limbs; 2.5 partial paralysis of one hind limb and complete paralysis of one hind limb; 3, paralysis of both hind limbs; 4, hind and fore limb paralysis; 5, moribund.
The vitamin D3 and 1,25-(OH)2D3 were obtained from Sigma Chemical Co. The vitamin D3 was dissolved in safflower oil and stored in the dark at 5° C. The 1,25-(OH)2D3 was dissolved in 100% ethanol (1 mg/mL) and stored in the dark under nitrogen gas at −20° C. The concentration of 1,25-(OH)2D3 was determined by spectral analysis. Animals with stage 2.3±0.3 were randomized into treatment groups. The details of the treatments are given in the figure legends and table footnotes. The synthetic diet used in some experiments was formulated to contain all essential nutrients except vitamin D3 and was prepared exactly as we described (Spach and Hayes, 2005, J. Immunol. 175:4119-4126). For experiments using supplementary vitamin D3, the placebo group was fed the synthetic diet ad libidum without added vitamin D3, whereas the vitamin D3-supplemented group was fed the synthetic diet ad libidum with vitamin D3 added in an amount to provide 1 μg/d, calculated based on a daily measured consumption of 4.0 g dry weight of diet per mouse. Fresh synthetic diet was provided three times per week. At several times during the study, mice were weighed and blood samples were obtained from the tail vein. At the conclusion of the study, the mice were euthanized, a blood sample was obtained, perfusion was done, and the spinal cords and optic nerves were removed. The spinal cords were flash frozen with liquid nitrogen and stored at −70° C. prior to 1,25-(OH)2D3 extraction. Alternatively, the spinal cords were divided into 6 equal sections, aligned vertically, snap frozen in O.C.T. compound (Sakura Finetek USA, Torrance, Calif.) and stored at −70° C. for histopathology. The blood was clotted, centrifuged, and the decanted serum was frozen at −70° C. prior to analysis.
Individual mice were analyzed and the mean and SD were calculated for each group of mice. Experiments were repeated at least once. The significance of differences between the group means was determined using the Mann-Whitney test (n≦16), Student's t-test (n>16), or Chi-squared test (binomial data); p<0.05 was considered significant.

[1] = female B10.PL mice, chow-fed, 20 ng pulse dose, 14 days post treatment
[2] = female B10.PL mice, chow-fed, 200 ng injected once each week, 21 days
[3] = female B10.PL mice, chow-fed, 200 ng injected once, 21 days post treatment
[4] = female B10.PL mice, chow-fed, 200 ng pulse dose, 14 days post treatment
[5] = female B10.PL mice, chow-fed, 400 ng pulse dose, 14 days post treatment
[6] = female and male B10.PL mice, chow-fed, 0.5 (female) or 1.0 (male) nmol injected once, 14 days post treatment
[7] = male B10.PL mice, chow-fed, 20 ng pulse dose, 14 days post treatment
[8] = male B10.PL mice, chow-fed, 40 ng pulse dose, 14 days post treatment
[9] = male B10.PL mice, chow-fed, 200 ng pulse dose, 14 days post treatment
[10] = male B10.PL mice, chow-fed, 400 ng pulse dose, 14 days post treatment
[11] = male and female B10.PL mice, 200 ng 1,25-(OH)2D3 injected, 5 μg vitamin D3 gavage 24 hr later, diet 1 μg/d vitamin D3
[12] = methyl-prednisolone 200 μg/d followed by one 1,25-(OH)2D3 treatment, 28-day observation period

C=C1/C(=C\C=C2/CCC[C@]3(C)[C@@H]([C@H](C)CCCC(C)(C)O)CC[C@@H]23)C[C@@H](O)C[C@@H]1O [1,25-(OH)2D3, 1,25-dihydroxy vitamin D3]
relative potency for the treatment of acute EAE disability (0.5 nmol (females) or 1.0 nmol (males), compared with methyl-prednisolone): far superior to methyl-prednisolone | reduction of cumulative disability (200 ng 1,25-(OH)2D3 pulse dose plus vitamin D3 (serum 25-(OH)D3 82±27), 42 day observation period): 48% | cumulative disability lower than the placebo group (chow-fed mice with acute EAE, weekly injections of 200 ng): 43% | EAE severity (decrease) [1]: 0.5 ± 1.0 | EAE severity (final) [1]: 1.6 ± 1.0 | Remission (%) [1]: 75% | Remission (days in) [1]: 8.0 ± 6.3 days | Remission (days to) [1]: 2.0 ± 0.0 days | EAE severity (initial) (female B10.PL mice, chow-fed, 20 ng pulse dose): 2.1 ± 0.1 | Cumulative disability (female B10.PL mice, chow-fed, 20 ng pulse dose, sum of daily scores for 14 days): 22.1 ± 9.0 | EAE severity (peak) [2]: 2.4 ± 0.4 | Remission [2]: 15.7 ± 3.4 days | Remission (%) [2]: 100% | Remission (minimum) [2]: 1.0 ± 0.0 | EAE severity (initial) (female B10.PL mice, chow-fed, 200 ng injected once each week): 2.3 ± 0.5 | Cumulative disability (female B10.PL mice, chow-fed, 200 ng injected once each week, sum of daily scores for 21 days): 31.6 ± 5.1 | EAE severity (peak) [3]: 2.7 ± 0.4 | Remission [3]: 13.4 ± 3.9 days | Remission (minimum) [3]: 1.0 ± 0.4 | Remission (%) (female B10.PL mice, chow-fed, 200 ng injected once, 21 days post treatment, remission = score ≦1.5 for two or more consecutive days): 100% | EAE severity (initial) (female B10.PL mice, chow-fed, 200 ng injected once): 2.6 ± 0.4 | Cumulative disability (female B10.PL mice, chow-fed, 200 ng injected once, sum of daily clinical scores for 21 days): 32.9 ± 9.3 | EAE severity (decrease) [4]: 1.6 ± 0.4 | EAE severity (final) [4]: 1.0 ± 0.4 | Remission (%) [4]: 100% | Remission (days in) [4]: 9.2 ± 2.5 days | Remission (days to) [4]: 5.8 ± 2.5 days | EAE severity (initial) (female B10.PL mice, chow-fed, 200 ng pulse dose): 2.6 ± 0.4 | Cumulative disability (female B10.PL mice, chow-fed, 200 ng pulse dose, sum of daily scores for 14 days): 21.8 ± 4.6 | EAE severity (decrease) [5]: 1.2 ± 0.2 | EAE severity (final) [5]: 1.0 ± 0.0 | Remission (%) [5]: 100% | Remission (days in) [5]: 9.6 ± 3.0 days | Remission (days to) [5]: 6.2 ± 3.3 days | EAE severity (initial) (female B10.PL mice, chow-fed, 400 ng pulse dose): 2.2 ± 0.2 | Cumulative disability (female B10.PL mice, chow-fed, 400 ng pulse dose, sum of daily scores for 14 days): 20.6 ± 5.2 | Cumulative disability [6]: 19.7 ± 4.4 | EAE severity (decrease) [6]: 1.2 ± 0.6 | Remission (%) [6]: 92% | Remission (days in) [6]: 10.0 ± 2.2 days | Remission (days to) [6]: 4.9 ± 2.2 days | EAE severity (initial) (female and male B10.PL mice, chow-fed, 0.5 (female) or 1.0 (male) nmol of steroid compound injected once): 2.3 ± 0.4 | effectiveness for the treatment of EAE (female mice, chow-fed, 20 ng pulse dose): partially effective | remission lasted an average of, before a relapse occurred (female mice, chow-fed, 200 ng pulse dose): 14 days | mice that achieved a remission (EAE≦1.5 for at least two consecutive days) (female mice, chow-fed, 200 ng pulse dose, within 6 days): 100% | EAE severity (decrease) [7]: 0.7 ± 0.4 | EAE severity (final) [7]: 1.4 ± 0.5 | Remission (%) [7]: 80% | Remission (days in) [7]: 6.6 ± 4.6 days | Remission (days to) [7]: 6.3 ± 2.2 days | EAE severity (initial) (male B10.PL mice, chow-fed, 20 ng pulse dose): 2.1 ± 0.2 | Cumulative disability (male B10.PL mice, chow-fed, 20 ng pulse dose, sum of daily scores for 14 days): 24.2 ± 6.2 | EAE severity (decrease) [8]: 0.5 ± 1.2 | EAE severity (final) [8]: 1.7 ± 1.0 | Remission (%) [8]: 80% | Remission (days in) [8]: 8.0 ± 4.6 days | Remission (days to) [8]: 4.5 ± 1.7 days | EAE severity (initial) (male B10.PL mice, chow-fed, 40 ng pulse dose): 2.2 ± 0.4 | Cumulative disability (male B10.PL mice, chow-fed, 40 ng pulse dose, sum of daily scores for 14 days): 25.0 ± 9.0 | EAE severity (decrease) [9]: 1.0 ± 0.4 | EAE severity (final) [9]: 1.3 ± 0.4 | Remission (%) [9]: 100% | Remission (days in) [9]: 11.9 ± 2.0 days | Remission (days to) [9]: 6.3 ± 2.4 days | EAE severity (initial) (male B10.PL mice, chow-fed, 200 ng pulse dose): 2.3 ± 0.3 | Cumulative disability (male B10.PL mice, chow-fed, 200 ng pulse dose, sum of daily scores for 14 days): 22.1 ± 3.5 | EAE severity (decrease) [10]: 1.2 ± 0.2 | EAE severity (final) [10]: 0.8 ± 0.3 | Remission (%) [10]: 86% | Remission (days in) [10]: 11.0 ± 1.4 days | Remission (days to) [10]: 4.2 ± 1.7 days | EAE severity (initial) (male B10.PL mice, chow-fed, 400 ng pulse dose): 2.1 ± 0.4 | Cumulative disability (male B10.PL mice, chow-fed, 400 ng pulse dose, sum of daily scores for 14 days): 16.9 ± 2.5 | Remission [11]: 36 ± 6 days | Remission (%) [11]: 100* % | mortality [11]: 0% | Cumulative disability (male and female B10.PL mice, 200 ng 1,25-(OH)2D3 injected, 5 μg vitamin D3 gavage, diet 1 μg/d vitamin D3, sum of daily scores for first 42 days post treatment): 50 ± 14 | Cumulative disability [12]: 36±10 | reduction of cumulative disability vs placebo group [12]: 42% | amelioration of EAE disease (mice with normal serum 25-(OH)D3 levels, 200 ng pulse dose in females and 400 ng pulse dose in males): optimally ameliorated EAE disease | mice that did not relapse (one 1,25-(OH)2D3 treatment (females 200 ng; males 400 ng) after withdrawal of 200 μg/d methyl-prednisolone, 28-day observation period): 4 of 6 | days in remission before relapse (remaining two mice) (one 1,25-(OH)2D3 treatment (females 200 ng; males 400 ng) after withdrawal of methyl-prednisolone): 14 days and 23 days
